Measurements: the supplement of paper PMC10627819

Tests used:
Experiment in all cases: Bliss interaction score (quartile over a dose matrix) (fitness difference); higher = more antagonism (negative = synergy)
S. aureus Newman = tested on: S. aureus Newman
Method in brief: (§1)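 Growth in each well was taken as OD595 at entry into stationary phase. Dividing by the plate's robust no-drug mean and capping at 1 gave fitness, and single-drug fitness was inferred from the combination data. The Bliss score, observed minus product-expected fitness, is summarised by quartiles over technical, biological and donor/recipient replicates.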

B. subtilis 168 = tested on: B. subtilis 168
Method in brief: as §1

S. pneumoniae D39V = tested on: S. pneumoniae D39V
Method in brief: as §1

S. aureus DSM 20231 = tested on: S. aureus DSM 20231
Method in brief: as §1
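Note: first quartile when negative (synergy) and third quartile when positive (antagonism).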

SMILES	Bliss interaction score (S. aureus Newman)	Bliss interaction score (B. subtilis 168)	Bliss interaction score (S. pneumoniae D39V)	Bliss interaction score (S. aureus DSM 20231)	Bliss interaction score (S. aureus Newman; main component drawn)	Bliss interaction score (B. subtilis 168; main component drawn)	Bliss interaction score (S. pneumoniae D39V; main component drawn)	Bliss interaction score (S. aureus DSM 20231; main component drawn)
CN[C@H](CC(C)C)C(=O)N[C@H]1C(=O)N[C@@H](CC(N)=O)C(=O)N[C@H]2C(=O)N[C@H]3C(=O)N[C@H](C(=O)N[C@H](C(=O)O)c4cc(O)cc(O)c4-c4cc3ccc4O)[C@H](O[C@H]3C[C@](C)(N)[C@@H](O)[C@H](C)O3)c3ccc(c(Cl)c3)Oc3cc2cc(c3O[C@@H]2O[C@H](CO)[C@@H](O)[C@H](O)[C@H]2O[C@H]2C[C@](C)(NCc3ccc(-c4ccc(Cl)cc4)cc3)[C@@H](O)[C@H](C)O2)Oc2ccc(cc2Cl)[C@H]1O [Oritavancin] + CN(N=O)C(=O)N[C@@H](C=O)[C@@H](O)[C@H](O)[C@H](O)CO [Streptozotocin]	-0.063	-0.0355	-0.0337	-0.0564				
CN[C@H](CC(C)C)C(=O)N[C@H]1C(=O)N[C@@H](CC(N)=O)C(=O)N[C@H]2C(=O)N[C@H]3C(=O)N[C@H](C(=O)N[C@H](C(=O)O)c4cc(O)cc(O)c4-c4cc3ccc4O)[C@H](O[C@H]3C[C@](C)(N)[C@@H](O)[C@H](C)O3)c3ccc(c(Cl)c3)Oc3cc2cc(c3O[C@@H]2O[C@H](CO)[C@@H](O)[C@H](O)[C@H]2O[C@H]2C[C@](C)(NCc3ccc(-c4ccc(Cl)cc4)cc3)[C@@H](O)[C@H](C)O2)Oc2ccc(cc2Cl)[C@H]1O [Oritavancin] + CN[C@@H]1[C@H](O)[C@H](NC)[C@H]2O[C@@]3(O)C(=O)C[C@@H](C)O[C@H]3O[C@@H]2[C@H]1O [Spectinomycin]	-0.154	-0.0238	0.0219	-0.0487				
CN[C@H](CC(C)C)C(=O)N[C@H]1C(=O)N[C@@H](CC(N)=O)C(=O)N[C@H]2C(=O)N[C@H]3C(=O)N[C@H](C(=O)N[C@H](C(=O)O)c4cc(O)cc(O)c4-c4cc3ccc4O)[C@H](O[C@H]3C[C@](C)(N)[C@@H](O)[C@H](C)O3)c3ccc(c(Cl)c3)Oc3cc2cc(c3O[C@@H]2O[C@H](CO)[C@@H](O)[C@H](O)[C@H]2O[C@H]2C[C@](C)(NCc3ccc(-c4ccc(Cl)cc4)cc3)[C@@H](O)[C@H](C)O2)Oc2ccc(cc2Cl)[C@H]1O [Oritavancin] + CN[C@@H]1[C@H](O[C@H]2[C@H](O[C@H]3[C@H](O)[C@@H](O)[C@H](N=C(N)N)[C@@H](O)[C@@H]3N=C(N)N)O[C@@H](C)[C@]2(O)C=O)O[C@@H](CO)[C@H](O)[C@H]1O [Streptomycin]	-0.138	-0.0219	0.0462	-0.111				
CN[C@H](CC(C)C)C(=O)N[C@H]1C(=O)N[C@@H](CC(N)=O)C(=O)N[C@H]2C(=O)N[C@H]3C(=O)N[C@H](C(=O)N[C@H](C(=O)O)c4cc(O)cc(O)c4-c4cc3ccc4O)[C@H](O[C@H]3C[C@](C)(N)[C@@H](O)[C@H](C)O3)c3ccc(c(Cl)c3)Oc3cc2cc(c3O[C@@H]2O[C@H](CO)[C@@H](O)[C@H](O)[C@H]2O[C@H]2C[C@](C)(NCc3ccc(-c4ccc(Cl)cc4)cc3)[C@@H](O)[C@H](C)O2)Oc2ccc(cc2Cl)[C@H]1O [Oritavancin] + CN[C@H](CC(C)C)C(=O)N[C@H]1C(=O)N[C@@H](CC(N)=O)C(=O)N[C@H]2C(=O)N[C@H]3C(=O)N[C@H](C(=O)N[C@H](C(=O)O)c4cc(O)cc(O)c4-c4cc3ccc4O)[C@H](O)c3ccc(c(Cl)c3)Oc3cc2cc(c3O[C@@H]2O[C@H](CO)[C@@H](O)[C@H](O)[C@H]2O[C@H]2C[C@](C)(N)[C@H](O)[C@H](C)O2)Oc2ccc(cc2Cl)[C@H]1O [Vancomycin]	-0.0787	0.0254	0.105	-0.0879				
CN[C@H](CC(C)C)C(=O)N[C@H]1C(=O)N[C@@H](CC(N)=O)C(=O)N[C@H]2C(=O)N[C@H]3C(=O)N[C@H](C(=O)N[C@H](C(=O)O)c4cc(O)cc(O)c4-c4cc3ccc4O)[C@H](O[C@H]3C[C@](C)(N)[C@@H](O)[C@H](C)O3)c3ccc(c(Cl)c3)Oc3cc2cc(c3O[C@@H]2O[C@H](CO)[C@@H](O)[C@H](O)[C@H]2O[C@H]2C[C@](C)(NCc3ccc(-c4ccc(Cl)cc4)cc3)[C@@H](O)[C@H](C)O2)Oc2ccc(cc2Cl)[C@H]1O [Oritavancin] + CO[C@H]1/C=C/O[C@@]2(C)Oc3c(C)c(O)c4c(O)c(c(/C=N/N5CCN(C)CC5)c(O)c4c3C2=O)NC(=O)/C(C)=C\C=C\[C@H](C)[C@H](O)[C@@H](C)[C@@H](O)[C@@H](C)[C@H](OC(C)=O)[C@@H]1C [Rifampicin]	0.0357	-0.0184	0.106	-0.0199				
CN[C@H](CC(C)C)C(=O)N[C@H]1C(=O)N[C@@H](CC(N)=O)C(=O)N[C@H]2C(=O)N[C@H]3C(=O)N[C@H](C(=O)N[C@H](C(=O)O)c4cc(O)cc(O)c4-c4cc3ccc4O)[C@H](O[C@H]3C[C@](C)(N)[C@@H](O)[C@H](C)O3)c3ccc(c(Cl)c3)Oc3cc2cc(c3O[C@@H]2O[C@H](CO)[C@@H](O)[C@H](O)[C@H]2O[C@H]2C[C@](C)(NCc3ccc(-c4ccc(Cl)cc4)cc3)[C@@H](O)[C@H](C)O2)Oc2ccc(cc2Cl)[C@H]1O [Oritavancin] + COc1cc(Cc2cnc(N)nc2N)cc(OC)c1OC [Trimethoprim]	-0.111	0.0391	0.078	-0.0406				
CN[C@H](CC(C)C)C(=O)N[C@H]1C(=O)N[C@@H](CC(N)=O)C(=O)N[C@H]2C(=O)N[C@H]3C(=O)N[C@H](C(=O)N[C@H](C(=O)O)c4cc(O)cc(O)c4-c4cc3ccc4O)[C@H](O[C@H]3C[C@](C)(N)[C@@H](O)[C@H](C)O3)c3ccc(c(Cl)c3)Oc3cc2cc(c3O[C@@H]2O[C@H](CO)[C@@H](O)[C@H](O)[C@H]2O[C@H]2C[C@](C)(NCc3ccc(-c4ccc(Cl)cc4)cc3)[C@@H](O)[C@H](C)O2)Oc2ccc(cc2Cl)[C@H]1O [Oritavancin] + COc1ccc(C[C@H](N)C(=O)N[C@H]2[C@@H](O)[C@H](n3cnc4c(N(C)C)ncnc43)O[C@@H]2CO)cc1 [Puromycin]	-0.0754	0.0232	0.0762	-0.0699				
CN[C@H](CC(C)C)C(=O)N[C@H]1C(=O)N[C@@H](CC(N)=O)C(=O)N[C@H]2C(=O)N[C@H]3C(=O)N[C@H](C(=O)N[C@H](C(=O)O)c4cc(O)cc(O)c4-c4cc3ccc4O)[C@H](O[C@H]3C[C@](C)(N)[C@@H](O)[C@H](C)O3)c3ccc(c(Cl)c3)Oc3cc2cc(c3O[C@@H]2O[C@H](CO)[C@@H](O)[C@H](O)[C@H]2O[C@H]2C[C@](C)(NCc3ccc(-c4ccc(Cl)cc4)cc3)[C@@H](O)[C@H](C)O2)Oc2ccc(cc2Cl)[C@H]1O [Oritavancin] + C[n+]1ccc(-c2cc[n+](C)cc2)cc1 [Paraquat]	-0.065	-0.0221	-0.044	-0.0738				
CN[C@H](CC(C)C)C(=O)N[C@H]1C(=O)N[C@@H](CC(N)=O)C(=O)N[C@H]2C(=O)N[C@H]3C(=O)N[C@H](C(=O)N[C@H](C(=O)O)c4cc(O)cc(O)c4-c4cc3ccc4O)[C@H](O[C@H]3C[C@](C)(N)[C@@H](O)[C@H](C)O3)c3ccc(c(Cl)c3)Oc3cc2cc(c3O[C@@H]2O[C@H](CO)[C@@H](O)[C@H](O)[C@H]2O[C@H]2C[C@](C)(NCc3ccc(-c4ccc(Cl)cc4)cc3)[C@@H](O)[C@H](C)O2)Oc2ccc(cc2Cl)[C@H]1O [Oritavancin] + Cc1cc(NS(=O)(=O)c2ccc(N)cc2)no1 [Sulfamethoxazol]	0.0801	-0.0377	-0.0491	-0.0575				
CN[C@H](CC(C)C)C(=O)N[C@H]1C(=O)N[C@@H](CC(N)=O)C(=O)N[C@H]2C(=O)N[C@H]3C(=O)N[C@H](C(=O)N[C@H](C(=O)O)c4cc(O)cc(O)c4-c4cc3ccc4O)[C@H](O[C@H]3C[C@](C)(N)[C@@H](O)[C@H](C)O3)c3ccc(c(Cl)c3)Oc3cc2cc(c3O[C@@H]2O[C@H](CO)[C@@H](O)[C@H](O)[C@H]2O[C@H]2C[C@](C)(NCc3ccc(-c4ccc(Cl)cc4)cc3)[C@@H](O)[C@H](C)O2)Oc2ccc(cc2Cl)[C@H]1O [Oritavancin] + Cc1onc(-c2ccccc2)c1C(=O)N[C@@H]1C(=O)N2[C@@H]1SC(C)(C)[C@@H]2C(=O)O [Oxacillin]	-0.0656	0.0256	-0.167	-0.0461				
CN[C@H](CC(C)C)C(=O)N[C@H]1C(=O)N[C@@H](CC(N)=O)C(=O)N[C@H]2C(=O)N[C@H]3C(=O)N[C@H](C(=O)N[C@H](C(=O)O)c4cc(O)cc(O)c4-c4cc3ccc4O)[C@H](O[C@H]3C[C@](C)(N)[C@@H](O)[C@H](C)O3)c3ccc(c(Cl)c3)Oc3cc2cc(c3O[C@@H]2O[C@H](CO)[C@@H](O)[C@H](O)[C@H]2O[C@H]2C[C@](C)(NCc3ccc(-c4ccc(Cl)cc4)cc3)[C@@H](O)[C@H](C)O2)Oc2ccc(cc2Cl)[C@H]1O [Oritavancin] + Cn1nnc(-c2ccc(-c3ccc(N4C[C@H](CO)OC4=O)cc3F)cn2)n1 [Tedizolid]	-0.0895	-0.0251	-0.0205	-0.0541				
CN[C@H](CC(C)C)C(=O)N[C@H]1C(=O)N[C@@H](CC(N)=O)C(=O)N[C@H]2C(=O)N[C@H]3C(=O)N[C@H](C(=O)N[C@H](C(=O)O)c4cc(O)cc(O)c4-c4cc3ccc4O)[C@H](O[C@H]3C[C@](C)(N)[C@@H](O)[C@H](C)O3)c3ccc(c(Cl)c3)Oc3cc2cc(c3O[C@@H]2O[C@H](CO)[C@@H](O)[C@H](O)[C@H]2O[C@H]2C[C@](C)(NCc3ccc(-c4ccc(Cl)cc4)cc3)[C@@H](O)[C@H](C)O2)Oc2ccc(cc2Cl)[C@H]1O [Oritavancin] + Oc1cc(Cl)ccc1Oc1ccc(Cl)cc1Cl [Triclosan]	-0.0473	0.0201	0.102	0.108				
CO[C@H]1/C=C/O[C@@]2(C)Oc3c(C)c(O)c4c(O)c(c(/C=N/N5CCN(C)CC5)c(O)c4c3C2=O)NC(=O)/C(C)=C\C=C\[C@H](C)[C@H](O)[C@@H](C)[C@@H](O)[C@@H](C)[C@H](OC(C)=O)[C@@H]1C [Rifampicin] + CCCCCCCCCC(=O)N[C@@H]1[C@H]([C@@H]([C@H](O[C@H]1OC2=C3C=C4C=C2OC5=C(C=C(C=C5)[C@H]([C@H]6C(=O)N[C@@H](C7=C(C(=CC(=C7)O)OC8[C@H]([C@H]([C@@H]([C@H](O8)CO)O)O)O)C9=C(C=CC(=C9)[C@H](C(=O)N6)NC(=O)[C@@H]4NC(=O)[C@@H]1C2=CC(=CC(=C2)OC2=C(C=CC(=C2)[C@H](C(=O)N[C@H](CC2=CC(=C(O3)C=C2)Cl)C(=O)N1)N)O)O)O)C(=O)O)O[C@H]1[C@@H]([C@H]([C@@H]([C@H](O1)CO)O)O)NC(=O)C)Cl)CO)O)O [Teicoplanin]					-0.0536	0.176	0.0769	-0.0357
CO[C@H]1/C=C/O[C@@]2(C)Oc3c(C)c(O)c4c(O)c(c(/C=N/N5CCN(C)CC5)c(O)c4c3C2=O)NC(=O)/C(C)=C\C=C\[C@H](C)[C@H](O)[C@@H](C)[C@@H](O)[C@@H](C)[C@H](OC(C)=O)[C@@H]1C [Rifampicin] + CC[C@H]1OC(=O)[C@H](C)C(=O)[C@H](C)[C@@H](O[C@@H]2O[C@H](C)C[C@H](N(C)C)[C@H]2O)[C@](C)(OC)C[C@@H](C)C(=O)[C@H](C)[C@H]2N(CCCCn3cnc(-c4cccnc4)c3)C(=O)O[C@]12C [Telithromycin]	0.0171	0.0808	-0.157	0.0559				
